# Measured values reported in patent US8697661B2, “Use of spinosyns and spinosyn compositions against herpesviridae viral infections” (priority 2009, dated 2014).
# Like-named read-outs stand apart in the source and are kept apart here.
# Columns and labels:
# [1] = test system: Herpes Simplex Virus type 1, McIntyre (HSV1); assay: Viral Plaque Reduction Assay / inhibition of infection assay, HSV1 in Vero cells; type: cell-based; settings: 10 μg/ml spinosad
# Vero cells = assay: Toxicity assay on Vero cells; type: cell-based, African Green Monkey
# [2] = test system: Herpes Simplex Virus type 2, Strain MS-HSV2; assay: IC50 assay against HSV2 in Vero cells; type: cell-based; settings: 50-100 infectious units of HSV2
# [3] = test system: murine Leukemia Virus (ATCC VR-1445); assay: Inhibition of murine Leukemia Virus in feline PG4 cells; type: cell-based; settings: 10 μg/ml spinosad, virus load of 30 infectious units
# [4] = test system: Respiratory Syncytial Virus Strain A2-RSV; type: cell-based; settings: 9.5 μg/ml spinosad, virus load of 50-100 infectious units, HEp2 cells
# H460 cells = assay: Cytotoxicity on H460 cells, ApoTox-Glo Triplex assay; type: cell-based
# [5] = test system: isolated mitochondria of H460 cells; assay: Oxygen consumption in isolated mitochondria, Seahorse XF24; type: biochemical; settings: 4° C. for three hours
# [6] = test system: Plasmodium falciparum, strain 3D7; settings: 2% spinosad dispersion in DMSO
# [7] = test system: BxPC-3 Human pancreatic adenocarcinoma; settings: for Cell Survival (% of Control; mean ± S.D.): 24-hour exposure, 24 h post end of exposure
# [8] = test system: DU 145 Human prostatic carcinoma cells; settings: for Cell Survival (% of Control; mean ± S.D.): 24-hour exposure, 24 h post end of exposure
# [9] = test system: PC-3 Human prostatic adenocarcinoma cells; settings: for Cell Survival (% of Control; mean ± S.D.): 24-hour exposure, 24 h post end of exposure
# [10] = test system: MDA-MB-231 Human breast adenocarcinoma cells; settings: for Cell Survival (% of Control; mean ± S.D.): 24-hour exposure, 24 h post end of exposure
# [11] = test system: PC-3 Human prostatic adenocarcinoma cells; assay: Cell proliferation assay, PC-3; settings: 24 hours of exposure (control 3.22)
# Protocol: (§1) Cell Proliferation assay: for each cell line, cell suspensions ranging in concentration of approximately 2-5×10^5 cells/mL of growth medium were prepared. 1 mL of each of these suspensions was aseptically transferred to a sterile tissue culture flask (12.5 or 25 cm^2) containing fresh growth medium. Three flasks (triplicate) were used for each group, and for each time point of viable cell number/mL measurement at 1, 3 and 5 days post-treatment (9 dishes per group in total). The cells were incubated and allowed to adhere to the bottom of the flasks and proliferate.
# (§2) After approximately 24 hours of exposure to treatments, dosing media was replaced with fresh growth media and cells were returned to the incubator and allowed to proliferate.
# (§3) Assessment of Cell Proliferation: For each cell line, measurement of viable cell number/mL was performed as already described above. This measurement was performed in triplicate from three flasks per group, at 1, 3 and 5 days post-removal of treatment.
# [12] = test system: BxPC-3 Human pancreatic adenocarcinoma; assay: Cell proliferation assay, BxPC-3; settings: 24 hours of exposure (control 3.02)
# Protocol: as §1, §2, §3
# [13] = test system: DU 145 Human prostatic carcinoma cells; assay: Cell proliferation assay, DU 145; settings: for Cell Number Doubling Time: 24 hours of exposure (control 2.17)
# Protocol: as §1, §2, §3
# [14] = test system: MDA-MB-231 Human breast adenocarcinoma cells; assay: Cell proliferation assay, MDA-MB-231; settings: for Cell Number Doubling Time: 24 hours of exposure (control 3.11)
# Protocol: as §1, §2, §3
# [15] = test system: Leishmania donovati MON-2 promastigotes; assay: In vitro test against Leishmania promastigotes; settings: read-out: Promastigotes IC50; stationary-phase promastigotes, 26° C.
# [16] = test system: BxPC-3, DU 145, PC-3 and MDA-MB-231; assay: Cell proliferation assay, all cell lines tested; settings: low dose level 5 μg/mL
# Protocol: as §1, §2, §3
# [17] = test system: Cytomegalovirus, Davis Strain-CMV; assay: Inhibition of Cytomegalovirus in HS27 fibroblasts; settings: 4.75 μg/ml spinosad, virus load of 50-100 infectious units, HS27 cells
# [18] = test system: Plasmodium falciparum 3D7 rings and trophozoites; assay: Susceptibility of different stages of P. falciparum; settings: 3D7 parasites, 48 h, 1% initial parasitemia
# Plasmodium vinckei = assay: In vivo test against Plasmodium vinckei parasites in mice; settings: BALB/c female mice, 25 mg/kg intraperitoneally daily for 6 consecutive days in DMSO; vs DMSO control; P=0.0085
# [19] = test system: Herpes Simplex Virus 1 McIntyre (HSV1); assay: IC50 assay against HSV1 in Vero cells (cytopathic effect); settings: 100 infectious units of Herpes Simplex 1, up to 5 days
# Protocol: We performed an IC50 assay, in which the amount of virus in the quadruplicate assay wells is identical, and the concentration of drug varies over a range of ten concentrations. This assay was performed in a 48 well tissue culture dish, each well containing the appropriate cell line at approximately 90% confluence. […] Approximately 100 infectious units per well were added to each test well. Cells, HSV1 virus and drug are incubated for up to 5 days and cytopathic effect is determined.
# [20] = test system: Leishmania donovati MON-2 amastigotes; assay: In vitro test against Leishmania amastigotes in J774 macrophages; settings: read-out: Amastigotes IC50; infected J774 macrophages
# Plasmodium falciparum = assay: ATP levels in the Plasmodium parasite, luciferin/luciferase assay
# [21] = spinosad 10 μg/mL, succinate substrate
# [22] = spinosad 20 μg/mL, succinate substrate
# [23] = spinosad 40 μg/mL, succinate substrate
# [24] = spinosad 80 μg/mL, succinate substrate
# [25] = BxPC-3, 24 h post end of 24-hour exposure
# [26] = DU 145, 24 h post end of 24-hour exposure
# [27] = PC-3, 24 h post end of 24-hour exposure
# [28] = MDA-MB-231, 24 h post end of 24-hour exposure
substance,measurement,setting,value
Spinosad,inhibition of approximately 20 infectious units of the HSV1 virus,[1],100%
same,inhibition of higher virus loads,[1]; more than approximately 20 infectious units,not inhibited
same,state of treated cell monolayer,Vero cells,healthy
same,toxicity against Vero cells,Vero cells,no toxicity
same,IC50,[2],about 5 μg/ml
same,IC100,[2],about 11.5 μg/ml
same,inhibition of virus,[3],no inhibition
same,inhibition of virus,[4],no inhibition
same,cytotoxicity,"H460 cells; 20 μg/mL spinosad, 3 hours of treatment",no cytotoxicity
same,concentration above which cell viability decreases,H460 cells; three hours of treatment,higher than 20 μg/mL
same,ADP stimulation,[5]; 20 μg of spinosad,slight increase
same,spinosad concentration above which mitochondrial integrity is reduced,[5]; succinate substrate,above 40 μg/mL
same,State III respiration (numerator of RCR),[5]; [21],711
same,State IV respiration (denominator of RCR),[5]; [21],300
same,State III respiration (numerator of RCR),[5]; [22],726
same,State IV respiration (denominator of RCR),[5]; [22],330
same,State III respiration (numerator of RCR),[5]; [23],666
same,State IV respiration (denominator of RCR),[5]; [23],430
same,State III respiration (numerator of RCR),[5]; [24],598
same,State IV respiration (denominator of RCR),[5]; [24],500
same,IC50,[6],about 0.625 μg/ml
same,elimination of parasites in spleen,"leishmania donovati; BALB/c female mice, 31.6 mg/kg intraperitoneally daily for 14 consecutive days in DMSO, from two weeks post infection, P=0.05",82%
same,elimination of parasites in the liver,"leishmania donovati; BALB/c female mice, 31.6 mg/kg intraperitoneally daily for 14 consecutive days in DMSO, P=0.083",73%
same,impact on liver and spleen weight,"leishmania donovati; BALB/c mice, 31.6 mg/kg i.p. 14 days, Mann-Whitney test",no impact
same,signs of toxicity,"leishmania donovati; BALB/c mice, treatment period of 14 days",No sign of toxicity
same,Calculated LC50,[7]; [25],11.1 µg/mL
same,Calculated LC100,[7]; [25],31.6 µg/mL
same,Cell Survival (% of Control; mean ± S.D.),"[7]; BxPC-3, spinosad 10 μg/mL",54.1 ± 9.8 % of Control
same,Cell Survival (% of Control; mean ± S.D.),"[7]; BxPC-3, spinosad 20 μg/mL",25.5 ± 2.6 % of Control
same,Cell Survival (% of Control; mean ± S.D.),"[7]; BxPC-3, spinosad 30 μg/mL",5.3 ± 2.6 % of Control
same,Calculated LC50,[8]; [26],12.5 µg/mL
same,Calculated LC100,[8]; [26],32.8 µg/mL
same,Cell Survival (% of Control; mean ± S.D.),"[8]; DU 145, spinosad 10 μg/mL",56.8 ± 3.1 % of Control
same,Cell Survival (% of Control; mean ± S.D.),"[8]; DU 145, spinosad 20 μg/mL",30.2 ± 4.5 % of Control
same,Cell Survival (% of Control; mean ± S.D.),"[8]; DU 145, spinosad 30 μg/mL",7.6 ± 4.1 % of Control
same,Calculated LC50,[9]; [27],13.3 µg/mL
same,Calculated LC100,[9]; [27],34.2 µg/mL
same,Cell Survival (% of Control; mean ± S.D.),"[9]; PC-3, spinosad 10 μg/mL",53.8 ± 8.0 % of Control
same,Cell Survival (% of Control; mean ± S.D.),"[9]; PC-3, spinosad 20 μg/mL",42.0 ± 9.5 % of Control
same,Cell Survival (% of Control; mean ± S.D.),"[9]; PC-3, spinosad 30 μg/mL",5.9 ± 2.5 % of Control
same,Calculated LC50,[10]; [28],13.4 µg/mL
same,Calculated LC100,[10]; [28],36.7 µg/mL
same,Cell Survival (% of Control; mean ± S.D.),"[10]; MDA-MB-231, spinosad 10 μg/mL",56.1 ± 13.7 % of Control
same,Cell Survival (% of Control; mean ± S.D.),"[10]; MDA-MB-231, spinosad 20 μg/mL",38.0 ± 5.7 % of Control
same,Cell Survival (% of Control; mean ± S.D.),"[10]; MDA-MB-231, spinosad 30 μg/mL",13.2 ± 1.4 % of Control
same,Cell Number Doubling Time,"[11]; PC-3, spinosad 5 μg/mL",4.17 days
same,Cell Number Doubling Time,"[11]; PC-3, spinosad 10 μg/mL",5.55 days
same,Cell Number Doubling Time,"[11]; PC-3, spinosad 15 μg/mL",6.24 days
same,Cell Number Doubling Time,"[12]; BxPC-3, spinosad 5 μg/mL",3.86 days
same,Cell Number Doubling Time,"[12]; BxPC-3, spinosad 10 μg/mL",4.76 days
same,Cell Number Doubling Time,"[12]; BxPC-3, spinosad 15 μg/mL",6.25 days
same,Cell Number Doubling Time,"[13]; DU 145, spinosad 5 μg/mL",2.89 days
same,Cell Number Doubling Time,"[13]; DU 145, spinosad 10 μg/mL",2.83 days
same,Cell Number Doubling Time,"[13]; DU 145, spinosad 15 μg/mL",3.18 days
same,cell number doubling time from 3 days post-treatment increased by,"[13]; high dose level 15 μg/mL, DU 145",approximately 46.5%
same,Cell Number Doubling Time,"[14]; MDA-MB-231, spinosad 5 μg/mL",3.99 days
same,Cell Number Doubling Time,"[14]; MDA-MB-231, spinosad 10 μg/mL",5.09 days
same,Cell Number Doubling Time,"[14]; MDA-MB-231, spinosad 15 μg/mL",7.13 days
same,cell number doubling time from 3 days post-treatment increased by,"[14]; high dose level 15 μg/mL, MDA-MB-231",approximately 129.3%
same,IC50,[15],9.5 ± 3.8 µM
same,cell number doubling time from 3 days post-treatment increased by,[16],27.8-33.2%
same,inhibition of virus,[17],no inhibition
same,activity against rings versus trophozoites,[18],same activity against both rings and trophozoites
same,reduction in the number of Plasmodium vinckei parasites,Plasmodium vinckei,70%
same,IC50,[19],about 17.42 μg/ml
same,IC50,[20],9 ± 3 µM
same,ATP levels in the parasite,"Plasmodium falciparum; albumin-containing medium (RPMI-1640), within erythrocytes and after isolation, spinosad 5-10 μg/ml in DMSO",reduces
same,ATP levels in the parasite,Plasmodium falciparum; isolated parasites in saline/spinosad medium (absence of albumin),unaffected
